From EP2631232B1, “Halogen derivatives of benzo[b]furans useful as anti-neoplastic or anti-proliferative drugs” (Centrum Badan Molekularnych I Makromolekularnych Pan, priority 2012, dated 2013)

Experiments:
[1] = test system: caspase 3 and 7; experiment: Apo-ONE Homogeneous Caspase-3/7 Assay in K562 cells; type: cell-based, human
Method: The above mentioned toxicity of compound 1a was tested for its origin, i.e. induction of necrosis or apoptosis in the K562 cells of chronic myelogenous leukaemia. Accordingly: • K562 cells in RPMI 1640 medium containing a 10% calf foetal serum and antibiotics, were disseminated on a 96-well plate, in the amount of 20 x 10^3 cells per well. Cells were cultured for 24 hours in the incubator (5% CO2; 37°C). • Compound 1a was dissolved in DMSO and added to the cell medium; final concentration in the cell culture was 25 μM (5 x IC50). Negative control was established by means of cells cultured in the presence of DMSO at the concentration of 1%. Positive control was established by means of cells cultured in the presence of 1 μM staurosporin, a strong apoptosis inductor. The cells were incubated with the compounds for 18 hours in the incubator (5% CO2; 37°C). • The test to determine the activity of […] […] Due to proteolytic activity of caspases, the pro-fluorescent substrate was transformed into a fluorescent product the amount of which could be determined by means of fluorescence intensity measurement. • Fluorescence intensity in each well was measured on the plate by means of FLUOStar Omega (BMG-Labtech, Germany) plate reader, at the exciting light wavelength of 485 nm and emission of 520 nm. Fluorescence intensity was proportional to the activity of caspase 3 and 7 in the sample.

[2] = test system: K562 cells (human chronic myelogenous leukaemia); experiment: MTT cytotoxicity test, K562 cells; type: cell-based; settings: for toxicity to K562 cells (in words): 48 hours of incubation; for IC50: Homo sapiens, MTT, 48h incubation
Method: (§1) A number of halogen derivatives of benzo[b]furans were tested for cytotoxic properties against four cell lines. The tests were conducted by means of MTT where yellow tetrazole salt was processed by the dehydrogenases in mitochondria of live cells into violet formazan, in cell lines mentioned below: • HeLa cells (uterine cervix cancer); • HL60 cells (human acute myelogenous leukaemia); • K562 cells (human chronic myelogenous leukaemia), and • HUVEC cells (normal human endothelial cells). • 1. HeLa, K562, HL 60, and HUVEC cells, 7 thousand cells per well (in 200 µl of the medium) were disseminated on 96-well plates. Cells were incubated overnight in the incubator (37°C, 5% CO2). • 2. Test compounds were dissolved in DMSO; 2µL solution amounts were added to the cells. Final concentrations of the culture: 1mM, 10µM, 100nM, 1nM. Control: DMSO-containing cells, final concentration of which amounted to 1% in the culture. • 3. Cytotoxicity test (MTT) of test compounds after 48h incubation. After 48h incubation of HeLa, K562, HL60, or HUVEC cells with test compounds, 25 µl of MTT per well added (input concentration = 5mg/ml) to the mixture. MTT, yellow tetrazole salt was reduced to violet formazan by mitochondrial dehydrogenases of live cells; the volume of formazan was measured spectrophotometrically. After 2h incubation of cells with MTT in the incubator (37°C; 5% CO2), cells were lysed in lysing buffer containing SDS and DMF (95 µl/well). The lysis was conducted overnight at 37°C and with 5% CO2. • 4. MTT results were taken from FLUOstar Omega reader (wavelengths: 570 and 650 nm). Absorbance measured at 570 nm was proportional to the number of live cells. The plates were analysed by reading out the absorbance values at 570 nm and 650 nm wavelengths. The values of IC50 (concentration of compound producing a 50% cell mortality) was taken from the diagram by means of interpolation for a 50% cell survival rate.

[3] = test system: HeLa cells (uterine cervix cancer); experiment: MTT cytotoxicity test, HeLa cells; type: cell-based; settings: for toxicity to HeLa cells (in words): 48 hours of incubation; for IC50: Homo sapiens, MTT, 48h incubation
Method: as §1

[4] = test system: HL60 cells (human acute myelogenous leukaemia); experiment: MTT cytotoxicity test, HL60 cells; type: cell-based; settings: for toxicity to HL60 cells (in words): 48 hours of incubation; for IC50: Homo sapiens, HL-60, MTT, 48h incubation
Method: as §1

[5] = test system: HUVEC cells (normal human endothelial cells); experiment: MTT cytotoxicity test, normal HUVEC cells; type: cell-based; settings: for toxicity to normal HUVEC cells (in words): 48 hours of incubation; for IC50: Homo sapiens, MTT, 48h incubation
Method: as §1

[6] = test system: K562 cells (human chronic myelogenous leukaemia); settings: comparison value for cis-platinum; cited from earlier work

## COc1cc2c(CBr)c(C(C)=O)oc2c(C(C)=O)c1OC [Compound 1a, 1,1'-[3-(bromomethyl)-5,6-dimethoxy-1-benzofuran-2,7-diyl] diethanon]
[1]; 25 µM, 18 hours incubation, compared with reference cells (K562 and K562+DMSO), Fig. 1
  activity of caspase 3 and 7: higher
[1]; 1a concentration = 25 µM, incubation time = 24h
  activity of caspases 3 and 7: increased
[2]
  toxicity to K562 cells (in words): Strong toxicity
  IC50: 5 µM
[3]
  toxicity to HeLa cells (in words): toxic to neither
  IC50: > 1000 µM
[4]
  toxicity to HL60 cells (in words): Strong toxicity
  IC50: 0.1 µM
[5]
  toxicity to normal HUVEC cells (in words): not toxic
  IC50: > 1000 µM

## COC(=O)c1c(C)oc2cc(C(=O)C(Br)Br)c(O)c(Br)c12 [Compound 1b]
[2]
  toxicity to K562 cells (in words): toxic
  IC50: 1 µM
[3]
  toxicity to HeLa cells (in words): toxic
  IC50: 9 µM
[4]
  toxicity to HL60 cells (in words): toxic
  IC50: 4 µM
[5]
  toxicity to normal HUVEC cells (in words): not toxic
  IC50: > 1000 µM

## COC(=O)c1c(C)oc2cc(C(=O)C(Br)Br)c(OC)cc12 [Compound 1c]
[2]
  toxicity to K562 cells (in words): toxic
  IC50: 1 µM
[3]
  toxicity to HeLa cells (in words): toxic
  IC50: 1 µM
[4]
  toxicity to HL60 cells (in words): toxic
  IC50: 4 µM
[5]
  toxicity to normal HUVEC cells (in words): not toxic
  IC50: > 1000 µM

## COC(=O)c1c(C)oc2cc(C(=O)C(Cl)Cl)c(O)c(Cl)c12 [Compound 1e]
[2]
  toxicity to K562 cells (in words): not toxic
  IC50: > 1000 µM
[3]
  toxicity to HeLa cells (in words): specifically toxic
  IC50: 10 µM
[4]
  toxicity to HL60 cells (in words): specifically toxic
  IC50: 3 µM
[5]
  toxicity to normal HUVEC cells (in words): not toxic
  IC50: > 1000 µM

## N.N.[Cl][Pt][Cl] [cis-platinum]
[6]
  IC50 value against K562 cells: several to several dozens
